Values quoted from earlier work as cited in patent US20230413809A1, “DISINFECTANT COMPOSITION FOR SURFACES AND THE PREPARATION THEREOF” (Onyx Lotus, LLC, priority 2020, published 2023).

Conditions: general statement on surfactant detergency, no test described

| Structure (SMILES) | Critical micellar concentration (CMC) [mM] |
| --- | --- |
| CCCCCCCCCCCCCCCC[N+](C)(C)C.[Br-] [CTAB, cetyltrimethylammonium bromide] | 0.92 |
| O=C([O-])CC(C(=O)[O-])S(=O)(=O)O.[Na+].[Na+] (centres unmarked) [sodium sulfosuccinate] | 0.6 |
